# Laboratory results published in publication PMC6409085, “Three odorant-binding proteins are involved in the behavioral response of Sogatella furcifera to rice plant volatiles” (PeerJ, 2019).
# Values joined by “and” are separate entries in the source; they are usually repeats but may differ in a detail not shown here. Equal values may be shown once.
# Columns and labels:
# Test in all cases: biochemical
# Format in all cases: binding
# SfurOBP1 = SfurOBP1 (Sogatella furcifera, UniProt V5T8N5); conditions: OBP1, three replicate columns
# Sequence of SfurOBP1 (V5T8N5 entry or part of it): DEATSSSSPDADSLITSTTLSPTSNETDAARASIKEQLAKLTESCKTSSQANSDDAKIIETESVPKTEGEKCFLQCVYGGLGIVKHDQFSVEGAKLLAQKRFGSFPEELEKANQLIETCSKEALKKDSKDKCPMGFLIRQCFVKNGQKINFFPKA
# Experimental: (§1) Thirty-six rice odorants ([He et al., 2014]; [Wang et al., 2017]) and 1-N-phenyl-naphthylamine (1-NPN) were purchased from Sigma-Aldrich (St Louis, MO, USA). These odorants and 1-NPN were dissolved in high-performance liquid chromatography (HPLC) purify grade methanol for 1.0 mM as work solution.
# (§2) Fluorescence competitive binding assays were performed on Tecan Spark 10M (Tecan Group Ltd., Männedorf, Switzerland) with the F96 Black ELIAS Plate (Sangon) ([Khuhro et al., 2017]; [Liu et al., 2017]). The solutions were excited at 337 nm and emission spectra were recorded between 390 and 490 nm. First, to test the binding constants of 1-NPN to the SfurOBPs, a 2.0 µM solution of protein in 50 mM Tris-HCl (pH = 7.4) was titrated with 1 mM 1-NPN to achieve virous concentrations. Next, the competitive binding of each odorant was measured using the 1-NPN as fluorescent reporter and odorant as competitor. The concentrations of protein and 1-NPN were both 2.0 µM, the odorant added after protein and 1-NPN added into the well of ELIAS Plate for 2 min. The final concentrations of each competitor were 2, 4, 6, 8, 10, 12, 14, 16, 18 and 20 µM. After 2 min of odorant added, the fluorescence intensity was measured and recorded. The volume of mixed solution in each well was maintained at 250 µL. Each interaction was performed in triplicates.
# (§3) GraphPad Prism 7.0 software (GraphPad Software, Inc., La Jolla, CA, USA) was used to calculated and generated the binding constants (K1−NPN) of 1-NPN to SfurOBPs and relative Scatchard plots ([Ban et al., 2003]; [Li et al., 2016]). Dissociation constant (Ki) of each odorant to SfurOBP was computed from the corresponding IC50 value (the half maximal inhibitory concentration), using the following equation: Ki=[IC50]/(1 + [1-NPN]/K1−NPN), where [1-NPN] is the free concentration of 1-NPN and K1−NPN is the dissociation constant of the complex protein/1-NPN.
# SfurOBP2 = SfurOBP2 (Sogatella furcifera, UniProt V5T759)
# Sequence of SfurOBP2 (V5T759 entry or part of it): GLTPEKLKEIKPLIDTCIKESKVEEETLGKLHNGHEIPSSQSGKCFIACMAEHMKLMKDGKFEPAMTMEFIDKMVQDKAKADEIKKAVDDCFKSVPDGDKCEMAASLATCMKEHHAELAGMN
# Experimental: as §1, §2, §3
# SfurOBP11 = SfurOBP11 (Sogatella furcifera, UniProt V5T6E3)
# Sequence of SfurOBP11 (V5T6E3 entry or part of it): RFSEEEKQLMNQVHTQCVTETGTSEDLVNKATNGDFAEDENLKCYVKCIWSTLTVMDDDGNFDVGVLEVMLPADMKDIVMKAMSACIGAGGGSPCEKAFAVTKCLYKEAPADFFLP
# Experimental: as §1, §2, §3
# SfurOBP3 = SfurOBP3 (Sogatella furcifera, UniProt V5T818); conditions: OBP3, three replicate columns
# Sequence of SfurOBP3 (V5T818 entry or part of it): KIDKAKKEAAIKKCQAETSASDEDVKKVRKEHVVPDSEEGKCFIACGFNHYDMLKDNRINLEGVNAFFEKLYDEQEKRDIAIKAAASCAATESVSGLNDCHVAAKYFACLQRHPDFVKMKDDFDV
# Experimental: as §1, §2, §3
smiles,measurement,setting,value
CC(C)COC(=O)CCCCC(=O)OCC(C)C [DA(diisobutyl adipate)],"Fluorescence competitive binding assay, fluorescence intensity",SfurOBP1; ligand concentration 2 (μM),6756 and 5373 and 6005
same,"Fluorescence competitive binding assay, fluorescence intensity",SfurOBP1; ligand concentration 4 (μM),6244 and 6492 and 6739
same,"Fluorescence competitive binding assay, fluorescence intensity",SfurOBP1; ligand concentration 6 (μM),6349 and 5828 and 6089
same,"Fluorescence competitive binding assay, fluorescence intensity",SfurOBP1; ligand concentration 8 (μM),6071 and 5880 and 6063
same,"Fluorescence competitive binding assay, fluorescence intensity",SfurOBP1; ligand concentration 10 (μM),6080 and 6185 and 6121
same,"Fluorescence competitive binding assay, fluorescence intensity",SfurOBP1; ligand concentration 12 (μM),5959 and 5941 and 5922
same,"Fluorescence competitive binding assay, fluorescence intensity",SfurOBP1; ligand concentration 14 (μM),6211 and 5589 and 5885
same,"Fluorescence competitive binding assay, fluorescence intensity",SfurOBP1; ligand concentration 16 (μM),6060 and 6168 and 5508
same,"Fluorescence competitive binding assay, fluorescence intensity",SfurOBP1; ligand concentration 18 (μM),6493 and 6572 and 6293
same,"Fluorescence competitive binding assay, fluorescence intensity",SfurOBP1; ligand concentration 20 (μM),7139 and 6435 and 6856
same,"Fluorescence competitive binding assay, OBP2 (raw fluorescence reading)","SfurOBP2; ligand concentration 2 (unit not given), replicate column 1 of 3",18255
same,"Fluorescence competitive binding assay, OBP2 (raw fluorescence reading)","SfurOBP2; ligand concentration 2 (unit not given), replicate column 2 of 3",18056
same,"Fluorescence competitive binding assay, OBP2 (raw fluorescence reading)","SfurOBP2; ligand concentration 2 (unit not given), replicate column 3 of 3",17857
same,"Fluorescence competitive binding assay, OBP2 (raw fluorescence reading)","SfurOBP2; ligand concentration 4 (unit not given), replicate column 1 of 3",17231
same,"Fluorescence competitive binding assay, OBP2 (raw fluorescence reading)","SfurOBP2; ligand concentration 4 (unit not given), replicate column 2 of 3",17998
same,"Fluorescence competitive binding assay, OBP2 (raw fluorescence reading)","SfurOBP2; ligand concentration 4 (unit not given), replicate column 3 of 3",18274
same,"Fluorescence competitive binding assay, OBP2 (raw fluorescence reading)","SfurOBP2; ligand concentration 6 (unit not given), replicate column 1 of 3",16096
same,"Fluorescence competitive binding assay, OBP2 (raw fluorescence reading)","SfurOBP2; ligand concentration 6 (unit not given), replicate column 2 of 3",17472
same,"Fluorescence competitive binding assay, OBP2 (raw fluorescence reading)","SfurOBP2; ligand concentration 6 (unit not given), replicate column 3 of 3",18707
same,"Fluorescence competitive binding assay, OBP2 (raw fluorescence reading)","SfurOBP2; ligand concentration 8 (unit not given), replicate column 1 of 3",16149
same,"Fluorescence competitive binding assay, OBP2 (raw fluorescence reading)","SfurOBP2; ligand concentration 8 (unit not given), replicate column 2 of 3",16678
same,"Fluorescence competitive binding assay, OBP2 (raw fluorescence reading)","SfurOBP2; ligand concentration 8 (unit not given), replicate column 3 of 3",16908
same,"Fluorescence competitive binding assay, OBP2 (raw fluorescence reading)","SfurOBP2; ligand concentration 10 (unit not given), replicate column 1 of 3",15320
same,"Fluorescence competitive binding assay, OBP2 (raw fluorescence reading)","SfurOBP2; ligand concentration 10 (unit not given), replicate column 2 of 3",15081
same,"Fluorescence competitive binding assay, OBP2 (raw fluorescence reading)","SfurOBP2; ligand concentration 10 (unit not given), replicate column 3 of 3",16366
same,"Fluorescence competitive binding assay, OBP2 (raw fluorescence reading)","SfurOBP2; ligand concentration 12 (unit not given), replicate column 1 of 3",14706
same,"Fluorescence competitive binding assay, OBP2 (raw fluorescence reading)","SfurOBP2; ligand concentration 12 (unit not given), replicate column 2 of 3",15645
same,"Fluorescence competitive binding assay, OBP2 (raw fluorescence reading)","SfurOBP2; ligand concentration 12 (unit not given), replicate column 3 of 3",15214
same,"Fluorescence competitive binding assay, OBP2 (raw fluorescence reading)","SfurOBP2; ligand concentration 14 (unit not given), replicate column 1 of 3",14108
same,"Fluorescence competitive binding assay, OBP2 (raw fluorescence reading)","SfurOBP2; ligand concentration 14 (unit not given), replicate column 2 of 3",14696
same,"Fluorescence competitive binding assay, OBP2 (raw fluorescence reading)","SfurOBP2; ligand concentration 14 (unit not given), replicate column 3 of 3",15283
same,"Fluorescence competitive binding assay, OBP2 (raw fluorescence reading)","SfurOBP2; ligand concentration 16 (unit not given), replicate column 1 of 3",14285
same,"Fluorescence competitive binding assay, OBP2 (raw fluorescence reading)","SfurOBP2; ligand concentration 16 (unit not given), replicate column 2 of 3",14484
same,"Fluorescence competitive binding assay, OBP2 (raw fluorescence reading)","SfurOBP2; ligand concentration 16 (unit not given), replicate column 3 of 3",14085
same,"Fluorescence competitive binding assay, OBP2 (raw fluorescence reading)","SfurOBP2; ligand concentration 18 (unit not given), replicate column 1 of 3",14063
same,"Fluorescence competitive binding assay, OBP2 (raw fluorescence reading)","SfurOBP2; ligand concentration 18 (unit not given), replicate column 2 of 3",14665
same,"Fluorescence competitive binding assay, OBP2 (raw fluorescence reading)","SfurOBP2; ligand concentration 18 (unit not given), replicate column 3 of 3",14360
same,"Fluorescence competitive binding assay, OBP2 (raw fluorescence reading)","SfurOBP2; ligand concentration 20 (unit not given), replicate column 1 of 3",13793
same,"Fluorescence competitive binding assay, OBP2 (raw fluorescence reading)","SfurOBP2; ligand concentration 20 (unit not given), replicate column 2 of 3",14314
same,"Fluorescence competitive binding assay, OBP2 (raw fluorescence reading)","SfurOBP2; ligand concentration 20 (unit not given), replicate column 3 of 3",13272
same,"Fluorescence intensity, fluorescence competitive binding assay, OBP11","SfurOBP11; ligand concentration 2, replicate 1",28052
same,"Fluorescence intensity, fluorescence competitive binding assay, OBP11","SfurOBP11; ligand concentration 2, replicate 2",24884
same,"Fluorescence intensity, fluorescence competitive binding assay, OBP11","SfurOBP11; ligand concentration 2, replicate 3",25998
same,"Fluorescence intensity, fluorescence competitive binding assay, OBP11","SfurOBP11; ligand concentration 4, replicate 1",25234
same,"Fluorescence intensity, fluorescence competitive binding assay, OBP11","SfurOBP11; ligand concentration 4, replicate 2",27203
same,"Fluorescence intensity, fluorescence competitive binding assay, OBP11","SfurOBP11; ligand concentration 4, replicate 3",25942
same,"Fluorescence intensity, fluorescence competitive binding assay, OBP11","SfurOBP11; ligand concentration 6, replicate 1",26005
same,"Fluorescence intensity, fluorescence competitive binding assay, OBP11","SfurOBP11; ligand concentration 6, replicate 2",24895
same,"Fluorescence intensity, fluorescence competitive binding assay, OBP11","SfurOBP11; ligand concentration 6, replicate 3",23079
same,"Fluorescence intensity, fluorescence competitive binding assay, OBP11","SfurOBP11; ligand concentration 8, replicate 1",23239
same,"Fluorescence intensity, fluorescence competitive binding assay, OBP11","SfurOBP11; ligand concentration 8, replicate 2",23328
same,"Fluorescence intensity, fluorescence competitive binding assay, OBP11","SfurOBP11; ligand concentration 8, replicate 3",24337
same,"Fluorescence intensity, fluorescence competitive binding assay, OBP11","SfurOBP11; ligand concentration 10, replicate 1",23466
same,"Fluorescence intensity, fluorescence competitive binding assay, OBP11","SfurOBP11; ligand concentration 10, replicate 2",24012
same,"Fluorescence intensity, fluorescence competitive binding assay, OBP11","SfurOBP11; ligand concentration 10, replicate 3",22919
same,"Fluorescence intensity, fluorescence competitive binding assay, OBP11","SfurOBP11; ligand concentration 12, replicate 1",20499
same,"Fluorescence intensity, fluorescence competitive binding assay, OBP11","SfurOBP11; ligand concentration 12, replicate 2",21796
same,"Fluorescence intensity, fluorescence competitive binding assay, OBP11","SfurOBP11; ligand concentration 12, replicate 3",19860
same,"Fluorescence intensity, fluorescence competitive binding assay, OBP11","SfurOBP11; ligand concentration 14, replicate 1",20110
same,"Fluorescence intensity, fluorescence competitive binding assay, OBP11","SfurOBP11; ligand concentration 14, replicate 2",20124
same,"Fluorescence intensity, fluorescence competitive binding assay, OBP11","SfurOBP11; ligand concentration 14, replicate 3",20151
same,"Fluorescence intensity, fluorescence competitive binding assay, OBP11","SfurOBP11; ligand concentration 16, replicate 1",18498
same,"Fluorescence intensity, fluorescence competitive binding assay, OBP11","SfurOBP11; ligand concentration 16, replicate 2",20828
same,"Fluorescence intensity, fluorescence competitive binding assay, OBP11","SfurOBP11; ligand concentration 16, replicate 3",20812
same,"Fluorescence intensity, fluorescence competitive binding assay, OBP11","SfurOBP11; ligand concentration 18, replicate 1",20721
same,"Fluorescence intensity, fluorescence competitive binding assay, OBP11","SfurOBP11; ligand concentration 18, replicate 2",21669
same,"Fluorescence intensity, fluorescence competitive binding assay, OBP11","SfurOBP11; ligand concentration 18, replicate 3",21849
same,"Fluorescence intensity, fluorescence competitive binding assay, OBP11","SfurOBP11; ligand concentration 20, replicate 1",20792
same,"Fluorescence intensity, fluorescence competitive binding assay, OBP11","SfurOBP11; ligand concentration 20, replicate 2",21117
same,"Fluorescence intensity, fluorescence competitive binding assay, OBP11","SfurOBP11; ligand concentration 20, replicate 3",20999
same,"Fluorescence competitive binding assay, fluorescence intensity",SfurOBP3; ligand concentration 2,60413 and 65968 and 63200
same,"Fluorescence competitive binding assay, fluorescence intensity",SfurOBP3; ligand concentration 4,61250 and 61185 and 61320
same,"Fluorescence competitive binding assay, fluorescence intensity",SfurOBP3; ligand concentration 6,60246 and 58949 and 59593
same,"Fluorescence competitive binding assay, fluorescence intensity",SfurOBP3; ligand concentration 8,52502 and 56703 and 49181
same,"Fluorescence competitive binding assay, fluorescence intensity",SfurOBP3; ligand concentration 10,59611 and 55127 and 57362
same,"Fluorescence competitive binding assay, fluorescence intensity",SfurOBP3; ligand concentration 12,47975 and 49504 and 49931
same,"Fluorescence competitive binding assay, fluorescence intensity",SfurOBP3; ligand concentration 14,42590 and 46739 and 44665
same,"Fluorescence competitive binding assay, fluorescence intensity",SfurOBP3; ligand concentration 16,36927 and 42551 and 39754
same,"Fluorescence competitive binding assay, fluorescence intensity",SfurOBP3; ligand concentration 18,35693 and 43209 and 41553
same,"Fluorescence competitive binding assay, fluorescence intensity",SfurOBP3; ligand concentration 20,42100 and 41400 and 42823
